Reference: patent publication US20250353891A1 (MEDIMMUNE LIMITED, priority 2022, published 2025)
Like-named read-outs stand apart in the source and are kept apart here. Starred links: 1 amine or outer side, 2 acyl side, 3 side chain; linkers in the order of their positions; H or OH if unused. Non-standard residues stand in square brackets, D forms with d. Residues, ends and D or L forms follow the SMILES beside them. Groups on a side chain read outwards from the residue. *: point of attachment. X1 = CC(C)(CCNC(=N)N)[C@H](N[*:1])C(=O)[*:2]; C20 diacid = O=C(O)CCCCCCCCCCCCCCCCCCC(=O)*; C18 diacid = O=C(O)CCCCCCCCCCCCCCCCC(=O)*; γGlu = O=C(O)[C@H](CCC(=O)[*:2])N[*:1]; Palmitoyl = CCCCCCCCCCCCCCCC(=O)*; αMeF = C[C@](N)(Cc1ccccc1)C(=O)O; PEG2 = NCCOCCOCCC(=O)O; AEEA = NCCOCCOCC(=O)O; Aib = CC(C)(N)C(=O)O

Legend:
[1] = biological target: human GLP-1 receptor (hGLP-1R) (Homo sapiens, UniProt P43220); test: cAMP production (HTRF) in CHO cells expressing hGLP-1R; assay type: cell-based; parameters: expressed in transfected cells; details: for % Relative Potency Ratio: % GLP-1R activity relative to GLP-1 / % GlucR activity relative to glucagon; for EC50: geometric mean, read-out: hGLP-1R EC50
Sequence of human GLP-1 receptor (hGLP-1R) (P43220 24-463): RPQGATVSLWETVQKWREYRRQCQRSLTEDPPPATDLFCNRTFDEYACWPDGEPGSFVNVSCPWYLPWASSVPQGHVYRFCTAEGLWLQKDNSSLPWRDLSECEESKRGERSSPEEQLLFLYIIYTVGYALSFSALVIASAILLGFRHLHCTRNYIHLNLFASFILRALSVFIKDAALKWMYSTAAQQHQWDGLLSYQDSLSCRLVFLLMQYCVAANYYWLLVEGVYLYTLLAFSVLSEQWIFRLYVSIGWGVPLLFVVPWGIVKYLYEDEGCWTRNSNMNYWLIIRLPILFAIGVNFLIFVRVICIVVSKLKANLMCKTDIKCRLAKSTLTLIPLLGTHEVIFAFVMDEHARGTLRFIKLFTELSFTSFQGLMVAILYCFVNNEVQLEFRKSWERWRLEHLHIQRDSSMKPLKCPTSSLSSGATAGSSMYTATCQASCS
Summary of the method: (§1)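 Potency values represent EC50 from 4-parameter logistic curves of HTRF % Delta F signal. Receptor-expressing CHO cells (hGCGR 2×10^5 cells/mL, hGLP-1R 1×10^5 cells/mL) were exposed for 30 min at room temperature before two-step cAMP detection.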

[2] = biological target: human glucagon receptor (hGCGR) (Homo sapiens, UniProt P47871); test: cAMP production (HTRF) in CHO cells expressing hGCGR; assay type: cell-based; parameters: expressed in transfected cells; details: geometric mean, read-out: hGluc-R EC50
Sequence of human glucagon receptor (hGCGR) (P47871 26-477): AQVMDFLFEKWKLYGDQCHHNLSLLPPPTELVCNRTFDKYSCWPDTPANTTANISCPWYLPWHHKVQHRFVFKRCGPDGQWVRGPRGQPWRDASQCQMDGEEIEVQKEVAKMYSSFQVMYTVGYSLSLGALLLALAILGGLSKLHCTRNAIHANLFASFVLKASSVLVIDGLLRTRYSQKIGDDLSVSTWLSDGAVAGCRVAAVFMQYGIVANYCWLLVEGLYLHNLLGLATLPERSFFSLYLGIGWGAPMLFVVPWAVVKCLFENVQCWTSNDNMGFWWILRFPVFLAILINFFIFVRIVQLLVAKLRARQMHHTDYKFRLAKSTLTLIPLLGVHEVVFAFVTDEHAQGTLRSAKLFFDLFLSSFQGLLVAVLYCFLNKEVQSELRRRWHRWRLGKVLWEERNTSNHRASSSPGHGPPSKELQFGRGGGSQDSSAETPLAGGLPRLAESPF
Summary of the method: as §1

Compound | % Relative Potency Ratio [1] | EC50 ([1]; cAMP, CHO cells, 0.1% BSA) | EC50 ([2]; cAMP, CHO cells, 0.1% BSA) | EC50 ([1]; Table 6, peptides modified at position 17, cAMP in CHO hGLP-1R cells) | % Relative Potency Ratio ([1]; Table 6) | EC50 ([2]; Table 6, peptides modified at position 17, cAMP in CHO hGCGR cells)
CC[C@H](C)[C@H](NC(=O)[C@H](CO)NC(=O)[C@H](CCCCNC(=O)COCCOCCNC(=O)COCCOCCNC(=O)CC[C@H](NC(=O)CC[C@H](NC(=O)CCCCCCCCCCCCCCCCC(=O)O)C(=O)O)C(=O)O)NC(=O)[C@@H](NC(=O)[C@H](Cc1ccccc1)NC(=O)[C@H](CC(=O)O)NC(=O)[C@H](CCC(N)=O)NC(=O)[C@H](C)NC(=O)C(C)(C)NC(=O)[C@H](CCCNC(=N)N)NC(=O)[C@H](CO)NC(=O)[C@H](CC(=O)O)NC(=O)[C@H](CC(C)C)NC(=O)[C@](C)(Cc1ccccc1)NC(=O)[C@H](CCCCN)NC(=O)[C@H](CO)NC(=O)[C@@H](NC(=O)[C@H](CC(=O)O)NC(=O)[C@H](CO)NC(=O)[C@@H](NC(=O)[C@](C)(Cc1ccccc1)NC(=O)[C@H](CO)NC(=O)CNC(=O)[C@H](Cc1c[nH]cn1)NC(=O)C(C)(C)NC(=O)[C@@H](N)Cc1c[nH]cn1)[C@@H](C)O)C(C)C)C(C)C)C(=O)N[C@@H](C)C(=O)N[C@@H](CC(N)=O)C(=O)N[C@H](C(=O)NCC(=O)NCC(N)=O)[C@@H](C)O [Peptide 382, H(Aib)HGS(αMePhe)TSDVSK(αMePhe)LDSR(Aib)AQDFVK(O2OC-O2OC-γE-γE-C18diacid)24SIANTGG-amide] (H-H[Aib]HGS[αMeF]TSDVSK[αMeF]LDSR[Aib]AQDFVK([AEEA-AEEA-γGlu-γGlu-C18 diacid])SIANTGG-NH2; N-terminus assumed) | 11.6 | 0.056 nM | 0.329 nM |  |  | 
CC[C@H](C)[C@H](NC(=O)C(C)(C)NC(=O)[C@H](CCCCNC(=O)COCCOCCNC(=O)COCCOCCNC(=O)CC[C@H](NC(=O)CCCCCCCCCCCCCCCCC(=O)O)C(=O)O)NC(=O)[C@@H](NC(=O)[C@](C)(Cc1ccccc1)NC(=O)[C@H](CC(=O)O)NC(=O)[C@H](CCC(N)=O)NC(=O)[C@H](C)NC(=O)[C@H](C)NC(=O)[C@H](CCC(N)=O)NC(=O)[C@H](CO)NC(=O)[C@H](CC(=O)O)NC(=O)[C@H](CC(C)C)NC(=O)[C@](C)(Cc1ccccc1)NC(=O)[C@H](CCCCN)NC(=O)[C@H](CO)NC(=O)[C@@H](NC(=O)[C@H](CC(=O)O)NC(=O)[C@H](CO)NC(=O)[C@@H](NC(=O)[C@](C)(Cc1ccccc1)NC(=O)[C@H](CO)NC(=O)CNC(=O)[C@H](Cc1c[nH]cn1)NC(=O)C(C)(C)NC(=O)[C@@H](N)Cc1c[nH]cn1)[C@@H](C)O)C(C)C)C(C)C)C(=O)N[C@@H](C)C(=O)N[C@@H](CC(N)=O)C(=O)N[C@H](C(N)=O)[C@@H](C)O [Peptide 383] (H-H[Aib]HGS[αMeF]TSDVSK[αMeF]LDSQAAQD[αMeF]VK([AEEA-AEEA-γGlu-C18 diacid])[Aib]IANT-NH2; N-terminus assumed) | 2.3 | 0.197 nM | 0.232 nM |  |  | 
CC[C@H](C)[C@H](NC(=O)C(C)(C)NC(=O)[C@H](CCCCNC(=O)COCCOCCNC(=O)COCCOCCNC(=O)CC[C@H](NC(=O)CC[C@H](NC(=O)CCCCCCCCCCCCCCCCCCC(=O)O)C(=O)O)C(=O)O)NC(=O)[C@@H](NC(=O)[C@](C)(Cc1ccccc1)NC(=O)[C@H](CC(=O)O)NC(=O)[C@H](CCC(N)=O)NC(=O)[C@H](C)NC(=O)[C@H](C)NC(=O)[C@H](CCC(N)=O)NC(=O)[C@H](CO)NC(=O)[C@H](CC(=O)O)NC(=O)[C@H](CC(C)C)NC(=O)[C@](C)(Cc1ccccc1)NC(=O)[C@H](CCCCN)NC(=O)[C@H](CO)NC(=O)[C@@H](NC(=O)[C@H](CC(=O)O)NC(=O)[C@H](CO)NC(=O)[C@@H](NC(=O)[C@](C)(Cc1ccccc1)NC(=O)[C@H](CO)NC(=O)CNC(=O)[C@H](Cc1c[nH]cn1)NC(=O)C(C)(C)NC(=O)[C@@H](N)Cc1c[nH]cn1)[C@@H](C)O)C(C)C)C(C)C)C(=O)N[C@@H](C)C(=O)N[C@@H](CC(N)=O)C(=O)N[C@H](C(N)=O)[C@@H](C)O [Peptide 384] (H-H[Aib]HGS[αMeF]TSDVSK[αMeF]LDSQAAQD[αMeF]VK([AEEA-AEEA-γGlu-γGlu-C20 diacid])[Aib]IANT-NH2; N-terminus assumed) | 3.1 | 0.797 nM | 1.24 nM |  |  | 
CC(C)C[C@H](NC(=O)[C@H](Cc1c[nH]c2ccccc12)NC(=O)[C@H](CCCNC(=N)N)NC(=O)[C@@H](NC(=O)[C@H](Cc1ccccc1)NC(=O)[C@H](CC(=O)O)NC(=O)[C@H](CCC(N)=O)NC(=O)[C@H](C)NC(=O)[C@H](CCCNC(=N)N)NC(=O)[C@H](CCCCNC(=O)COCCOCCNC(=O)COCCOCCNC(=O)CC[C@H](NC(=O)CC[C@H](NC(=O)CCCCCCCCCCCCCCCCCCC(=O)O)C(=O)O)C(=O)O)NC(=O)[C@@H](NC(=O)[C@H](CC(=O)O)NC(=O)[C@H](CC(C)C)NC(=O)[C@](C)(Cc1ccccc1)NC(=O)[C@H](CCCCN)NC(=O)[C@H](CO)NC(=O)[C@@H](NC(=O)[C@H](CC(=O)O)NC(=O)[C@H](CO)NC(=O)[C@@H](NC(=O)[C@H](Cc1ccccc1)NC(=O)[C@@H](NC(=O)CNC(=O)[C@H](CCC(N)=O)NC(=O)C(C)(C)NC(=O)[C@@H](N)Cc1c[nH]cn1)[C@@H](C)O)[C@@H](C)O)C(C)C)[C@@H](C)O)C(C)C)C(=O)N[C@@H](CCC(=O)O)C(=O)N[C@@H](C)C(=O)NC(C)(C)C(=O)NCC(=O)O [Peptide 408] (H-H[Aib]QGTFTSDVSK[αMeF]LDTK([AEEA-AEEA-γGlu-γGlu-C20 diacid])RAQDFVRWLEA[Aib]G-OH; N-terminus assumed) |  |  |  | 0.37 nM | 4.4 | 0.828 nM

The next lines start with the values.

% Relative Potency Ratio [1] | EC50 ([1]; cAMP, CHO cells, 0.1% BSA) | EC50 ([2]; cAMP, CHO cells, 0.1% BSA) | EC50 ([1]; Table 6, peptides modified at position 17, cAMP in CHO hGLP-1R cells) | % Relative Potency Ratio ([1]; Table 6) | EC50 ([2]; Table 6, peptides modified at position 17, cAMP in CHO hGCGR cells) | Compound
14.9 | 0.174 nM | 1.31 nM |  |  |  | CC[C@H](C)[C@H](NC(=O)[C@H](CO)NC(=O)[C@H](CCCCNC(=O)COCCOCCNC(=O)COCCOCCNC(=O)CC[C@H](NC(=O)CC[C@H](NC(=O)CCCCCCCCCCCCCCCCC(=O)O)C(=O)O)C(=O)O)NC(=O)[C@@H](NC(=O)[C@H](Cc1ccccc1)NC(=O)[C@H](CC(=O)O)NC(=O)[C@H](CCC(N)=O)NC(=O)[C@H](C)NC(=O)[C@H](C)NC(=O)[C@H](CCCNC(=N)N)NC(=O)[C@H](CO)NC(=O)[C@H](CC(=O)O)NC(=O)[C@H](CC(C)C)NC(=O)[C@](C)(Cc1ccccc1)NC(=O)[C@H](CCCCN)NC(=O)[C@H](CO)NC(=O)[C@@H](NC(=O)[C@H](CC(=O)O)NC(=O)[C@H](CO)NC(=O)[C@@H](NC(=O)[C@](C)(Cc1ccccc1)NC(=O)[C@H](CO)NC(=O)CNC(=O)[C@H](Cc1c[nH]cn1)NC(=O)C(C)(C)NC(=O)[C@@H](N)Cc1c[nH]cn1)[C@@H](C)O)C(C)C)C(C)C)C(=O)N[C@@H](C)C(=O)N[C@@H](CC(N)=O)C(=O)N[C@H](C(=O)NCC(=O)NCC(N)=O)[C@@H](C)O [Peptide 381] (H-H[Aib]HGS[αMeF]TSDVSK[αMeF]LDSRAAQDFVK([AEEA-AEEA-γGlu-γGlu-C18 diacid])SIANTGG-NH2; N-terminus assumed)
16.7 | 0.00127 nM | 0.0107 nM |  |  |  | CCCCCCCCCCCCCCCC(=O)N[C@@H](CCC(=O)N[C@@H](CCC(=O)NCCOCCOCCC(=O)NCCOCCOCCC(=O)NCCCC[C@H](NC(=O)[C@H](CCCCN)NC(=O)[C@H](CO)NC(=O)[C@@H](NC(=O)[C@H](CC(=O)O)NC(=O)[C@H](CO)NC(=O)[C@@H](NC(=O)[C@](C)(Cc1ccccc1)NC(=O)[C@H](CO)NC(=O)CNC(=O)[C@H](CCC(N)=O)NC(=O)[C@H](CO)NC(=O)[C@@H](N)Cc1c[nH]cn1)[C@@H](C)O)C(C)C)C(=O)N[C@@H](CC(C)C)C(=O)N[C@@H](CC(=O)O)C(=O)N[C@@H](CO)C(=O)N[C@H](C(=O)N[C@@H](C)C(=O)N[C@@H](C)C(=O)N[C@@H](CCC(N)=O)C(=O)N[C@@H](CC(=O)O)C(=O)N[C@@](C)(Cc1ccccc1)C(=O)N[C@H](C(=O)N[C@@H](CCC(=O)O)C(=O)NC(C)(C)C(=O)N[C@@H](CC(C)C)C(=O)N[C@@H](C)C(=O)N[C@@H](CC(N)=O)C(=O)N[C@H](C(N)=O)[C@@H](C)O)C(C)C)C(C)(C)CCNC(=N)N)C(=O)O)C(=O)O [Peptide 400, HSQGS(αMePhe)TSDVSKK((PEG)2-(PEG)2-γE-γE-Palmitoyl)13LDS(β-dimethylArg)AAQD(αMePhe)VE(Aib)LANT-amide] (H-HSQGS[αMeF]TSDVSKK([PEG2-PEG2-γGlu-γGlu-Palmitoyl])LDS[X1]AAQD[αMeF]VE[Aib]LANT-NH2; N-terminus assumed)
31.6 | 0.458 nM | 7.31 nM |  |  |  | CC[C@H](C)[C@H](NC(=O)C(C)(C)NC(=O)[C@H](CCC(N)=O)NC(=O)[C@@H](NC(=O)[C@](C)(Cc1ccccc1)NC(=O)[C@H](CC(=O)O)NC(=O)[C@H](CCC(N)=O)NC(=O)[C@H](C)NC(=O)[C@H](C)NC(=O)[C@H](CCCNC(=N)N)NC(=O)[C@H](CO)NC(=O)[C@H](CC(=O)O)NC(=O)[C@H](CC(C)C)NC(=O)[C@H](CCCCNC(=O)COCCOCCNC(=O)COCCOCCNC(=O)CC[C@H](NC(=O)CCCCCCCCCCCCCCCCC(=O)O)C(=O)O)NC(=O)[C@H](CCCCN)NC(=O)[C@H](CO)NC(=O)[C@@H](NC(=O)[C@H](CC(=O)O)NC(=O)[C@H](CO)NC(=O)[C@@H](NC(=O)[C@](C)(Cc1ccccc1)NC(=O)[C@H](CO)NC(=O)CNC(=O)[C@H](Cc1c[nH]cn1)NC(=O)C(C)(C)NC(=O)[C@@H](N)Cc1c[nH]cn1)[C@@H](C)O)C(C)C)C(C)C)C(=O)N[C@@H](C)C(=O)N[C@@H](CC(N)=O)C(=O)N[C@H](C(N)=O)[C@@H](C)O [Peptide 406] (H-H[Aib]HGS[αMeF]TSDVSKK([AEEA-AEEA-γGlu-C18 diacid])LDSRAAQD[αMeF]VQ[Aib]IANT-NH2; N-terminus assumed)
